# Measured values as given in EP4563149A1, “LURBINECTEDIN, ECUBECTEDIN AND A RELATED COMPOUND FOR USE IN THE TREATMENT OF SKIN CANCERS” (Pharma Mar, S.A., priority 2023, dated 2025).
# Like-named read-outs stand apart in the source and are kept apart here.
# How the values were obtained:
# IGR37 = test: Cell viability assay (PrestoBlue), 72h, last line of Table 2; conditions: Homo sapiens, IGR-37, 72 h
# Protocol: (§6) Cells were grown at 37°C in 5% CO2 (10% for Hermes 3A) and were regularly checked for mycoplasma contamination. […] Melanoma IGR cell lines (IGR37 and IGR39) were grown in RPMI w/o HEPES (Gibco, Invitrogen) supplemented with 15% FCS and gentamycin.
# (§7) To determine the IC50 (half maximal inhibitory concentration) of these cells to various inhibitors, cell viability assays were performed.
# (§8) After 72h of treatment with different concentrations of the compounds, cells were treated with PrestoBlue reagent according to the manufacturer's instructions. The absorbance per well was measured with a Cellinsight CX5 microplate reader. Data were analyzed using Prism9 statistical software.
# MM029 = test: Cell viability assay (PrestoBlue), 72h; conditions: Homo sapiens
# Protocol: as §6, §7, §8
# melanoma cells 501mel = test: Cell cycle analysis by flow cytometry (PI); assay type: cell-based, human; conditions: IC50 concentrations
# Protocol: For cell cycle analysis, 2×10^6 cells were seeded in 6 well plates. […] After 2 washes with cold PBS, cells were incubated with RNAse A and PI for 1h in the dark, before being analyzed on a BD LSRFortessaTM Flow Cytometer. Data were analysed with FlowJo software.
# melanoma cells = test: Apoptosis by flow cytometry (AnnexinV-APC); assay type: cell-based, human; conditions: IC50 concentrations, Annexin V-APC
# Protocol: After 48h of incubation, cells were rinsed and incubated with AnnexinV-APC (BD Biosciences). Cell proliferation and apoptosis were detected on a BD LSRFortessaTM Flow Cytometer. Data were analyzed with FlowJo software. To define slow proliferating or apoptotic cells: it was considered that slow proliferating cells represented the 30% of cells with the highest concentration of CellTrace Violet signal in the DMSO control. […] For apoptotic cells, it was considered the 20% of cells with the highest signal of AnnexinV-APC in the DMSO control.
# MM074^VemuR = test: Cell viability assay (PrestoBlue), 72h; conditions: Homo sapiens
# Protocol: Cells were grown at 37°C in 5% CO2 (10% for Hermes 3A) and were regularly checked for mycoplasma contamination. MM patient-derived short-term melanoma cultures (MM011, MM074, MM117, MM029, MM047, MM099) were grown in HAM-F10 (Gibco, Invitrogen) supplemented with 10% Fetal Calf Serum (FCS), 25 mM HEPES, 5.2 mM GLUTAMAX and penicillin-streptomycin. Melanoma cell lines 501mel and SKmel28 were grown in RPMI w/o HEPES (Gibco, Invitrogen) supplemented with 10% FCS and gentamycin. Vemurafenib-resistant cells (501melVemuR and MM074VemuR) were additionally supplemented with 1.5 µM of vemurafenib. Melanoma IGR cell lines (IGR37 and IGR39) were grown in RPMI w/o HEPES (Gibco, Invitrogen) supplemented with 15% FCS and gentamycin.
# as §7, §8
# MM099 = test: Cell viability assay (PrestoBlue), 72h; conditions: Homo sapiens
# Protocol: as §6, §7, §8
# [1] = test system: Sk-mel-28 melanoma xenografts; conditions: 1.2 mg/kg intravenous
# Protocol: (§1) Female athymic nu/nu mice (Harlan Laboratories Models, S.L. Barcelona, Spain or Envigo, Spain) were utilized for all experiments. Animal were housed in individually ventilated cages Sealsafe® Plus, Techmplast S.P.A.), up to ten per cage on a 12-hour light-dark cycle at 21-23 °C and 40-60 % humidity. Mice were allowed free access to irradiated standard rodent diet (Tecklad 2914C) and sterilized water. Animals were acclimated for at least 5 days prior to tumor implantation with a tumor cell suspension.
# (§2) The cell line used are: • 501mel • IGR-37 • SK-Mel-28 • WM-266-4 • LOX-IMVI • 501mel^Vemur
# (§3) In xenograft studies with cell lines: • Tumour volume was calculated using the equation […], where a: length (longest diameter) and b: width (shortest diameter) were measured in mm by using digital caliper (Fowler Sylvac, S235PAT). Tumour dimensions and body weights were recorded 2-3 times per week starting from the first day of treatment. • When tumors reached ca. 150-250 mm^3, tumour bearing animals (N = 8-10/group) were randomly allocated into the treatment groups, based on body weight and tumour measurements by using NewLab Oncology Software (version 2.25.06.00). • Comparison between median tumour volume of treated and placebo groups was used for evaluation of the antitumoural efficacy. • Animals were euthanized when their tumours reached ca. 1,500 mm^3 and/or severe necrosis was seen.
# (§4) Treatments producing >20 % lethality and/or 20% net body weight loss were considered toxic.
# (§5) In these experiments, PM14 and Compound IA, as well as placebo, were intravenously administered once per week for 3 consecutive weeks, on days 0, 7 and 14, whenever it was possible.
# Table 6. Tumour volume evaluation in Sk-mel-28 melanoma xenografts with PM14 and Compound IA and placebo.
# [2] = test system: WM-266-4 melanoma xenografts; conditions: 1.2 mg/kg intravenous
# Protocol: as §1, §2, §3, §4, §5
# Table 7. Tumour volume evaluation in WM-266-4 melanoma xenografts with PM14 and Compound IA and placebo.
# [3] = test system: melanoma cell cultures or cell lines; test: Clonogenic assay; assay type: cell-based, human; conditions: 48h at IC50 concentrations, then 10 days without drug
# Protocol: Based on the cell viability assays conducted above, the efficacy of lurbinectedin, PM14 or Compound IA on melanoma cell proliferation was investigated. Initially, a clonogenic assay was performed. Cells were drug-treated at IC50 concentrations during 48h before seeding 1×10^3 or 2×10^3 cells in 6-well plates without drug, wherein they grew for 10 days to allow for colony formation. Afterwards, cells were fixed for 10min with 4% formaldehyde solution, washed once with PBS and stained with Crystal Violet solution 0.2% for 15 min. The wells were finally washed twice with deionized water, air dried, scanned and analyzed with Fiji software to count the number of colonies.
# 501 mel^Vemur cell line = conditions: 1.2 mg/kg intravenous
# Protocol: as §1, §2, §3, §4, §5
# MM074 melanospheres = test: Melanosphere viability (CellTiterGlo); assay type: cell-based, human; conditions: 72h, doses equivalent to 5×IC50
# Protocol: MM074 proliferative/differentiated cell line were seeded (5×10^4 cells) in ultra-low attachment hydrogel-layered 96 well plates in KO DMEM medium supplemented with 20% KSR, AANE, 2 mM Glutamax, Penicillin/Streptomycin and 100 uM Beta-mercaptoethanol. To allow for melanosphere formation, cells were left to grow for 4 days before drug treatment.
# To analyze melanosphere viability after drug treatment, cells were treated with CellTiterGlo reagent (Promega) according to the manufacturer's instructions. Luminescence signals were measured with a Centro XS LB 960 microplate reader (Berthold).
structure (smiles),measurement,setting,value
COc1c(C)cc2c(c1O)[C@@H]1[C@@H]3[C@@H]4SC[C@]5(N[C@H](CO)Cc6c5oc5ccccc65)C(=O)OC[C@@H](c5c6c(c(C)c(OC(C)=O)c54)OCO6)N3[C@@H](O)[C@H](C2)N1C [Compound IA],IC50,IGR37,0.84 nM
same,IC50,MM029,4.73 nM
same,cell cycle progression,melanoma cells 501mel,notable blockade
same,apoptosis,melanoma cells,induction of apoptosis
same,IC50,MM074^VemuR,3.08 nM
same,IC50,MM099,1.85 nM
same,Median Tumour Volume,"[1]; days 0, 7 and 14, day 0",152.3 mm^3
same,Median Tumour Volume,"[1]; days 0, 7 and 14, day 2",179.8 mm^3
same,Median Tumour Volume,"[1]; days 0, 7 and 14, day 4",232.7 mm^3
same,Median Tumour Volume,"[1]; days 0, 7 and 14, day 7",302 mm^3
same,Median Tumour Volume,"[1]; days 0, 7 and 14, day 9",397.8 mm^3
same,Median Tumour Volume,"[1]; days 0, 7 and 14, day 11",476.6 mm^3
same,Median Tumour Volume,"[1]; days 0, 7 and 14, day 14",551.1 mm^3
same,Median Tumour Volume,"[1]; days 0, 7 and 14, day 16",585.8 mm^3
same,Median Tumour Volume,"[1]; days 0, 7 and 14, day 18",676.6 mm^3
same,Median Tumour Volume,"[1]; days 0, 7 and 14, day 21",748.7 mm^3
same,Median Tumour Volume,"[1]; days 0, 7 and 14, day 23",866.2 mm^3
same,Median Tumour Volume,"[1]; days 0, 7 and 14, day 25",906.6 mm^3
same,Median Tumour Volume,"[1]; days 0, 7 and 14, day 28","1,203.1 mm^3"
same,Median Tumour Volume,"[1]; days 0, 7 and 14, day 32","1,331.3 mm^3"
same,Median Tumour Volume,"[1]; days 0, 7 and 14, day 35","1,593.1 mm^3"
same,Median Tumour Volume,"[2]; days 0, 7 and 14, day 0",169.5 mm^3
same,Median Tumour Volume,"[2]; days 0, 7 and 14, day 3",109.8 mm^3
same,Median Tumour Volume,"[2]; days 0, 7 and 14, day 5",100 mm^3
same,Median Tumour Volume,"[2]; days 0, 7 and 14, day 7",104.4 mm^3
same,Median Tumour Volume,"[2]; days 0, 7 and 14, day 10",97.8 mm^3
same,Median Tumour Volume,"[2]; days 0, 7 and 14, day 12",89.2 mm^3
same,Median Tumour Volume,"[2]; days 0, 7 and 14, day 14",94.9 mm^3
same,Median Tumour Volume,"[2]; days 0, 7 and 14, day 17",68.8 mm^3
same,Median Tumour Volume,"[2]; days 0, 7 and 14, day 19",75.7 mm^3
same,Median Tumour Volume,"[2]; days 0, 7 and 14, day 21",95.2 mm^3
same,Median Tumour Volume,"[2]; days 0, 7 and 14, day 24",75.7 mm^3
same,Median Tumour Volume,"[2]; days 0, 7 and 14, day 26",96.7 mm^3
same,Median Tumour Volume,"[2]; days 0, 7 and 14, day 28",99.4 mm^3
same,Median Tumour Volume,"[2]; days 0, 7 and 14, day 34",134.3 mm^3
same,Median Tumour Volume,"[2]; days 0, 7 and 14, day 41",275.2 mm^3
same,Median Tumour Volume,"[2]; days 0, 7 and 14, day 45",312.1 mm^3
same,Median Tumour Volume,"[2]; days 0, 7 and 14, day 48",461.7 mm^3
same,Median Tumour Volume,"[2]; days 0, 7 and 14, day 55",749.7 mm^3
same,Median Tumour Volume,"[2]; days 0, 7 and 14, day 62",985.3 mm^3
same,Median Tumour Volume,"[2]; days 0, 7 and 14, day 69","1,145.3 mm^3"
same,colony formation (number of colonies),[3],significant impact
same,Median Tumour Volume,"501 mel^Vemur cell line; days 0, 7 and 14, day 0",160.3 mm^3
same,Median Tumour Volume,"501 mel^Vemur cell line; days 0, 7 and 14, day 2",249 mm^3
same,Median Tumour Volume,"501 mel^Vemur cell line; days 0, 7 and 14, day 4",306.8 mm^3
same,Median Tumour Volume,"501 mel^Vemur cell line; days 0, 7 and 14, day 7",378.8 mm^3
same,Median Tumour Volume,"501 mel^Vemur cell line; days 0, 7 and 14, day 9",417.2 mm^3
same,Median Tumour Volume,"501 mel^Vemur cell line; days 0, 7 and 14, day 11",453.7 mm^3
same,Median Tumour Volume,"501 mel^Vemur cell line; days 0, 7 and 14, day 14",490.8 mm^3
same,Median Tumour Volume,"501 mel^Vemur cell line; days 0, 7 and 14, day 16",517.4 mm^3
same,Median Tumour Volume,"501 mel^Vemur cell line; days 0, 7 and 14, day 18",572.1 mm^3
same,Median Tumour Volume,"501 mel^Vemur cell line; days 0, 7 and 14, day 21",666.9 mm^3
same,Median Tumour Volume,"501 mel^Vemur cell line; days 0, 7 and 14, day 23",703.5 mm^3
same,Median Tumour Volume,"501 mel^Vemur cell line; days 0, 7 and 14, day 25",739.3 mm^3
same,Median Tumour Volume,"501 mel^Vemur cell line; days 0, 7 and 14, day 28",861.2 mm^3
same,Median Tumour Volume,"501 mel^Vemur cell line; days 0, 7 and 14, day 30",986.4 mm^3
same,Median Tumour Volume,"501 mel^Vemur cell line; days 0, 7 and 14, day 35",997.4 mm^3
same,Median Tumour Volume,"501 mel^Vemur cell line; days 0, 7 and 14, day 42",900.1 mm^3
same,Median Tumour Volume,"501 mel^Vemur cell line; days 0, 7 and 14, day 44",982.3 mm^3
same,Median Tumour Volume,"501 mel^Vemur cell line; days 0, 7 and 14, day 46",1080 mm^3
same,Median Tumour Volume,"501 mel^Vemur cell line; days 0, 7 and 14, day 49","1,169.4 mm^3"
same,Median Tumour Volume,"501 mel^Vemur cell line; days 0, 7 and 14, day 53","1,262.1 mm^3"
same,Median Tumour Volume,"501 mel^Vemur cell line; days 0, 7 and 14, day 56","1,521.8 mm^3"
same,cell viability in 3D culture,MM074 melanospheres,significant cytotoxic effects
